# How the values were obtained:
# [1] = tested on: viral integration; assay: Inhibition of viral integration by INSTI (Example 4); assay type: cell-based, HIV-1; conditions: for IC50: Human immunodeficiency virus 1, read-out: IC50 for inhibition of viral integration
# [2] = tested on: maturation reaction (3′-processing); assay: Effect of INSTI on the maturation reaction (3′-processing) in infected cells (Example 4); assay type: cell-based, HIV-1; conditions: for effect on the maturation step: 500 nM inhibitor; for maturation efficacy: 2.5 μM inhibitor
# Excerpt: Quantification of 3′ non-mature and mature linear forms of the DNA of HIV-1 by LM-PCR. The strategy used in order to quantify the linear viral DNA is based on the ligation of a linking oligonucleotide (or “linker”) at the ends of the viral ends followed by two PCRs according to the protocol of Pierson et al. (Pierson et al. (2002) Journal of Virology 17:8518-8531). Major improvements have been made in order to implement an approach of quantitative PCR type.
# [3] = target: T1, recombinant integrase (Human immunodeficiency virus type 1 group M subtype B, UniProt P12497); assay: In vitro maturation reaction with recombinant integrase; assay type: biochemical, HIV-1
# T1 construct: with the aid of recombinant integrase
# [4] = tested on: maturation reaction; assay: Confirmation of the effect on maturation with a radiolabeled probe derived from the PCR; assay type: cell-based, HIV-1; conditions: 5 μM inhibitor
# Excerpt: The different effects of each of the inhibitors on the maturation reaction were confirmed with the aid of a radiolabeled probe derived from the PCR.
# [5] = tested on: 2-LTR or 1-LTR bands of HIV-1 viral DNA; assay: Accumulation of 2-LTR and 1-LTR bands with INSTI (Example 4); assay type: cell-based; conditions: for 2 LTR bands as share of the viral forms: 500 nM to 5 μM, 48 h post-infection; for accumulation of 2-LTR or 1-LTR bands on varying the concentration: from 500 nM to 5 μM
# Description: Quantification of the 1-LTR bands. The quantifications were carried out by real-time PCR on a Light Cycler apparatus (Roche Diagnostics, Meylan, France) with the aid of the second derivative method provided with the Light Cycler quantification software, version 3.5 (Roche Diagnostics). The number of DNA copies of the 1-LTR bands was determined by quantifying the viral molecules with the aid of primers which hybridize to the genes gag and env, as well as to hybridization probes. The reaction mixtures contain 1× LightCycler FastStart DNA master HybProbes buffer (Roche Diagnostics reference 12239272001), 4 mM MgCl2, 300 nM of 1-LTR LA1 primers (5′-[…]-3′, SEQ ID NO: 1) and 1-LTR LA16 (5′-[…]-3′, SEQ ID NO: 2) and 200 nM of LTR FL* hybridization probes (5′-[…]^a-3′, SEQ ID NO: 3) and LTR LC*(5′-[…]^b-3′, SEQ ID NO: 4) (^aFluorescein at the 3′ end; ^bLC red 640 at the 5′ end and phosphorylated at the 3′ end) in a final volume of 20 μl. The conditions of the PCR cycles for the quantification of the 1-LTR bands are the following: denaturation step for 8 min followed by 40 cycles (95° C. for 10 s, 60° C. for 10 s, and 72° C. for 25 s). The number of copies of 1-LTR bands was determined by reference to a calibration curve prepared by amplifying quantities ranging from 100 to 10^5 copies of p1-LTR.
# (§1) The bands at 2-LTR are amplified by the primers flanking the LTR-LTR junction (HIVF and HIVR1 primers) (Brussel & Sonigo (2003) Journal of Virology 77:10119-10124). The viral DNA integrated is quantified by Alu-PCR (Brussel & Sonigo (2003) Journal of Virology 77:10119-10124). The U5-gag sequences, the 2-LTR junctions as well as the specific amplification of the integrated DNA are amplified in duplicate starting from 1/50 of the extraction of cell DNA. The number of copies is normalized per μg of DNA by measuring the quantity of β-globin gene in 1/50 of the DNA extract (Table 1).
# [6] = tested on: maturation reaction in primary CD4+ T lymphocytes infected with Δenv virus of wild-type; assay: Efficacy of maturation during infection of primary CD4+ T lymphocytes; assay type: cell-based, HIV-1; conditions: 5 μM inhibitor
# Excerpt: In addition, the accumulation kinetics of the 1-LTR and 2-LTR bands are similar in the primary cells with respect to cells of cellular line.
# [7] = tested on: maturation (3′-processing) of the linear viral DNA of HIV-1 in CEM cells; assay: Quantification of mature and non-mature linear viral DNA by LM-PCR after infection of CEM cells; assay type: cell-based
# [8] = tested on: integration of HIV-1 viral DNA in infected cells; assay: Quantification of integrated viral DNA by Alu-PCR in infected cells; assay type: cell-based; conditions: WT virus, 500 nM raltegravir, FIG. 3D
# Excerpt: as §1
SMILES,lowest concentration completely inhibiting viral integration [1] [nM],IC50 [1] [nM],effect on the maturation step [2],maturation efficacy [2],IC50 [3] [nM],effect on maturation [4],2 LTR bands as share of the viral forms [5] [%],accumulation of 2-LTR or 1-LTR bands on varying the concentration [5],efficacy of the maturation reaction influenced or not [6],"percentage of mature viral DNA ([7]; wild-type integrase virus, 20 μM FZ41 at the time of infection, 20 hours post-infection (75% without compound)) [%]","quantity of linear viral DNA (mature and non-mature), compared with WT ([7]; 500 nM raltegravir, achieved 8 hours post-infection)","quantity of mature viral DNA with or without raltegravir ([7]; WT virus, 500 nM raltegravir)",detection of integrated viral DNA [8],maturation activity / maturation efficacy ([2]; 5 μM inhibitor) [%]
"C[C@@H]1CCO[C@H]2Cn3cc(C(=O)NCc4ccc(F)cc4F)c(=O)c(O)c3C(=O)N12 [DTG, dolutegravir]",500,2,not affected,approximately 40%,2000,significantly inhibit maturation,~40,does not lead to an increase,influenced,–,–,–,–,–
"COc1cc2c(cc1Cc1cccc(Cl)c1F)c(=O)c(C(=O)O)cn2[C@H](CO)C(C)C [EVG, elvitegravir]",500,2,not affected,approximately 40%,–,significantly inhibit maturation,~40,does not lead to an increase,influenced,–,–,–,–,–
COc1cc(/C=C/c2ccc3ccc(C(=O)O)c(O)c3n2)cc(O)c1O [FZ41],–,–,–,–,–,–,–,–,–,28,–,–,–,–
"Cc1nnc(C(=O)NC(C)(C)c2nc(C(=O)NCc3ccc(F)cc3)c(O)c(=O)n2C)o1 [RAL, raltegravir]",500,8,not affected,–,–,–,–,–,not,–,the same,similar,inhibition of the detection of integrated viral DNA,80

# Source: patent US20150232954A1, “Method for quantifying different viral forms of the DNA of the HIV virus” (UNIVERSITE PARIS DIDEROT - PARIS 7, priority 2012, published 2015)
